Source: patent US11045480B2, “Anti-huLRRC15 antibody drug conjugates and methods for their use” (AbbVie Inc., priority 2015, dated 2021)

Columns and labels:
[1] = tested on: HPAF-II (human pancreatic) xenograft; assay: HPAF-II xenograft tumor growth; type: in vivo, mouse
Procedure: (§1) For the experiment, 1 million cells (HPAF-II) that were grown in vitro were inoculated subcutaneously per mouse into the right flank of female SCID-Beige mice. Tumors were size matched at ˜200 mm^3, and dosed intraperitoneally (IP) Q4D×6 (1 dose given every 4 days for a total of 6 doses) as shown in FIG. 13B.
In FIG. 21A, HPAF-II pancreatic cancer cells (1 million) were implanted subcutaneously into SCID mice, and mice were randomized when the tumors reached ˜200 mm^3 and dosed with biologics at 6 mg/kg intraperitoneally on a Q4D×6 (one dose given every 4 days for a total of 6 doses), while gemcitabine was dosed intraperitoneally at 100 mg/kg (Q3D×4)×2 (one dose given every three days for 4 doses per cycle, 2 cycles with 8 total doses given).

[2] = tested on: EBC-1 (human squamous NSCLC) xenograft; assay: EBC-1 xenograft tumor growth; type: in vivo, mouse
Procedure: as §1, with “experiments, five” for “experiment, 1”, “(EBC-1)” for “(HPAF-II)”, “13A. Measurements of the length (L) and width (W) of the tumors were taken via electronic caliper and the volume was calculated according to the following equation: V=L×W^2/2.” for “13B.”
For this experiment, tumors were size matched at ˜200 mm^3, and dosed intraperitoneally (IP) Q7D×2 (1 dose given every 7 days for a total of 2 doses) as shown in FIG. 13C. […]
5 million cells were implanted subcutaneously into SCID/Beige mice, and mice were randomized when tumor group mean volumes reached ˜200 mm^3.
In FIG. 20C, EBC1 cells (5 million) were implanted subcutaneously into SCID/Beige mice and mice were randomized when the tumors reached ˜200 mm^3 and dosed with biologics at 6 mg/kg intraperitoneally on a Q7D×2 (one dose given every 7 days for a total of 2 doses), while erlotinib was dosed orally daily for 10 days at 50 mg/kg, and carboplatin was dosed intraperitoneally Q4D×3 (one dose given every 4 days for a total of 3 doses) at 50 mg/kg.
In FIG. 21B, EBC-1 squamous NSCLC cells (5 million) were implanted subcutaneously into SCID/Beige mice, and mice were randomized when the tumors reached ˜200 mm^3 and dosed with biologics at 6 mg/kg intraperitoneally on a Q7D×2 (one dose given every 7 days for a total of 2 doses), while gemcitabine was dosed intraperitoneally at 100 mg/kg (Q3D×3) (one dose given every three days for 3 doses total).

[3] = tested on: PANC1 (pancreatic) xenograft; assay: PANC1 xenograft tumor growth; type: in vivo, mouse
Procedure: In FIG. 20E, PANC1 pancreatic cancer cells (10 million) were implanted subcutaneously into SCID mice, and mice were randomized when the tumors reached ˜125 mm^3 and dosed with biologics at 12 mg/kg intraperitoneally on a Q4D×6 (one dose given every 4 days for a total of 6 doses), while gemcitabine was dosed intraperitoneally at 100 mg/kg Q3D×4) (one dose given every three days for 4 doses total).

[4] = tested on: MC-38 mouse colorectal cancer; assay: MC-38 syngeneic tumor growth; type: in vivo
Procedure: MC-38 mouse colorectal cancer cells (250,000) were implanted subcutaneously into C57BL/6 mice, and mice were randomized when the tumors reached ˜100 mm^3 and dosed with isotype antibodies or ADCs at 12 mg/kg intraperitoneally on a Q4D×6 (one dose given every 4 days for a total of 6 doses), while the anti-PD-1 antibody (“Anti-PD1 mAb”) was dosed intraperitoneally at 2 mg/kg Q4D×6 (one dose given every 4 days for a total of 6 doses).

[5] = tested on: EBC-1 (human squamous NSCLC) xenograft; assay: EBC-1 xenograft tumor growth; type: in vivo, mouse; conditions: EBC-1, SCID/Beige mice; huM25-vcMMAE-E2 at 3 mg/kg (method: biologics 6 mg/kg IP Q7D×2); method: gemcitabine 100 mg/kg IP Q3D×3, result sentence names docetaxel (FIG. 21B)
[6] = tested on: NCI-H1650 (NSCLC) xenograft; assay: NCI-H1650 xenograft tumor growth; type: in vivo, mouse
Procedure: The potency of anti-huLRRC15 ADCs as compared to current standards of care was assessed in xenograft models with NCI-H1650 ([…]), HN5 (head and neck), EBC-1 (squamous NSCLC), NW231 (breast) and PANC1 (pancreatic) cancer cells. […] For FIG. 20A, NCI-H1650 cells (5 million cells) were implanted subcutaneously into SCID/Beige mice and tumors were randomized when they reached ˜200 mm^3 and dosed with biologics at 6 or 12 mg/kg intraperitoneally on a Q4D×6 (one dose given every 4 days for a total of 6 doses), while erlotinib was dosed orally daily for 10 days at 100 mg/kg, and carboplatin was dosed intraperitoneally Q4D×4 (one dose given every 4 days for a total of 4 doses) at 50 mg/kg.
NCI-H1650 NSCLC cancer cells (5 million) were implanted subcutaneously into SCID/Beige mice, and mice were randomized when the tumors reached ˜200 mm^3 and dosed with biologics at 6 or 12 mg/kg intraperitoneally on a Q4D×6 (one dose given every 4 days for a total of 6 doses), while erlotinib was dosed orally daily at 100 mg/kg for 10 doses.
NCI-H1650 NSCLC cancer cells (5 million) were implanted subcutaneously into SCID/Beige mice, and mice were randomized when the tumors reached ˜200 mm^3 and dosed on day 0 with isotype or ADC at 0.1, 0.3, or 0.6 mg/kg intraperitoneally.
NCI-H1650 adeno NSCLC cells (5 million) were implanted subcutaneously into SCID/Beige mice, and mice were randomized when the tumors reached ˜225 mm^3 and dosed with ADC at 0.6 mg/kg or isotype antibody at 12 mg/kg intraperitoneally once on day 0.

[7] = ADC 6 mg/kg IP Q4D×6 plus gemcitabine 100 mg/kg IP (Q3D×4)×2 (FIG. 21A)
[8] = SCID mice, biologics 6 mg/kg IP Q4D×6, gemcitabine 100 mg/kg IP (Q3D×4)×2 (FIG. 21A)
[9] = SCID-Beige mice, 6 mg/kg IP Q4D×6 (FIG. 13B)
[10] = EBC1, SCID/Beige mice, biologics 6 mg/kg IP Q7D×2, erlotinib 50 mg/kg orally daily ×10, carboplatin 50 mg/kg IP Q4D×3 (FIG. 20C)
[11] = EBC-1, SCID-Beige mice, 6 mg/kg IP Q4D×6 (FIG. 13A)
[12] = EBC-1, ADC plus second agent of FIG. 21B (sentence: docetaxel; method and legend: gemcitabine)
[13] = NCI-H1650, SCID/Beige mice, biologics 6 or 12 mg/kg IP Q4D×6, erlotinib 100 mg/kg orally daily ×10, carboplatin 50 mg/kg IP Q4D×4 (FIG. 20A, 22A)
[14] = NCI-H1650, ADC 6 or 12 mg/kg IP Q4D×6 plus erlotinib 100 mg/kg orally daily ×10 (FIG. 22A)

Substance: huM25-vcMMAE-E2: huM25 conjugated with maleimidocaproyl val-cit PABA MMAE, preparation enriched in DAR2 by HIC
- TGD, used adjunctively with gemcitabine [1, 7]: 183%
- TGImax, used adjunctively with gemcitabine [1, 7]: 85%
- TGD, single agent [1, 8]: 57%
- TGImax, single agent [1, 8]: 57%
- TGImax [1, 9]: 76%
- tumor growth delay [1, 9]: 133%
- TGD [2, 10]: 129%
- TGImax [2, 10]: 92%
- maximum tumor growth inhibition (TGImax) [2, 11]: 97%
- tumor growth delay (TGD) [2, 11]: 305%
- TGD, single agent ([2]; EBC-1, SCID/Beige mice, huM25-vcMMAE-E2 at 3 mg/kg (method: biologics 6 mg/kg IP Q7D×2), method: gemcitabine 100 mg/kg IP Q3D×3, result sentence names docetaxel (FIG. 21B)): 144%
- TGD, used adjunctively [2, 12]: 348%
- TGImax, used adjunctively [2, 12]: 98%
- TGImax ([3]; PANC1 (3+ huLRRC15 stromal positive, cancer negative) tumor model (FIG. 17B)): 94.4%
- TGImax ([3]; PANC1, SCID mice, biologics 12 mg/kg IP Q4D×6, gemcitabine 100 mg/kg IP Q3D×4 (FIG. 20E)): 94%
- single agent activity ([4]; MC-38, C57BL/6 mice, ADC 12 mg/kg IP Q4D×6 (FIG. 22C)): did not show single agent activity
- TGImax, administered adjunctively with anti-PD-1 antibody ([4]; MC-38, ADC 12 mg/kg IP Q4D×6 plus anti-PD-1 antibody 2 mg/kg IP Q4D×6 (FIG. 22C)): 87%
- TGImax, single agent [5]: 91%
- TGD, single agent [6, 13]: 450%
- TGImax, single agent [6, 13]: 92%
- TGD, used adjunctively with erlotinib [6, 14]: > 538%
- TGImax, used adjunctively with erlotinib [6, 14]: 92%
